Values after ≈ are worked out from the molar mass of the structure shown. Like-named read-outs stand apart in the source and are kept apart here.
Assays:
C. neoformans Crm1^OE = assay: microbe, parasite or virus in culture; assay type: cell-based, Cryptococcus neoformans; conditions: Cryptococcus neoformans, 48 h
Summary of the method: (§1)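 Broth microdilution per CLSI M27 in RPMI1640, compounds serially diluted 2-fold from DMSO stock. Overnight YPD cultures washed, resuspended and adjusted to 5000 cfu/mL in RPMI as inoculum. Plates incubated 2 days at 37 °C.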

C. neoformans H99 = assay: microbe, parasite or virus in culture; assay type: cell-based, Cryptococcus neoformans; conditions: Cryptococcus neoformans, H99; compound alone; RPMI1640, 37 °C, 48 h; read-out: MIC
Summary of the method: as §1

C. neoformans MRL862 = assay: microbe, parasite or virus in culture; assay type: cell-based, Cryptococcus neoformans; conditions: RPMI1640, 37 °C, 48 h
Summary of the method: as §1

C. neoformans apt1Δ = assay: microbe, parasite or virus in culture; assay type: cell-based, Cryptococcus neoformans; conditions: Cryptococcus neoformans, 48 h
Summary of the method: as §1

C. neoformans apt2Δ = assay: microbe, parasite or virus in culture; assay type: cell-based, Cryptococcus neoformans; conditions: Cryptococcus neoformans, 48 h
Summary of the method: as §1

C. neoformans apt3Δ = assay: microbe, parasite or virus in culture; assay type: cell-based, Cryptococcus neoformans; conditions: Cryptococcus neoformans, 48 h
Summary of the method: as §1

C. neoformans apt4Δ = assay: microbe, parasite or virus in culture; assay type: cell-based, Cryptococcus neoformans; conditions: Cryptococcus neoformans, 48 h
Summary of the method: as §1

C. neoformans cdc50Δ = assay: microbe, parasite or virus in culture; assay type: cell-based, Cryptococcus neoformans; conditions: Cryptococcus neoformans, 48 h
Summary of the method: as §1

C. neoformans crm1Δ = assay: microbe, parasite or virus in culture; assay type: cell-based, Cryptococcus neoformans; conditions: Cryptococcus neoformans, 48 h
Summary of the method: as §1

C. glabrata 2001 [1] = assay: microbe, parasite or virus in culture; assay type: cell-based, Candida glabrata; conditions: Nakaseomyces glabratus, 2001; compound alone; RPMI1640, 37 °C, 48 h; read-out: MIC
Summary of the method: as §1

C. glabrata FKS1-S629P = assay: microbe, parasite or virus in culture; assay type: cell-based, Candida glabrata; conditions: Nakaseomyces glabratus, FKS1S629P, 48 h
Summary of the method: as §1

C. glabrata FKS2-S663P = assay: microbe, parasite or virus in culture; assay type: cell-based, Candida glabrata; conditions: Nakaseomyces glabratus, FKS2S663P, 48 h
Summary of the method: as §1

C. albicans SC5413 [2] = assay: microbe, parasite or virus in culture; assay type: cell-based, Candida albicans; conditions: Candida albicans, SC5413; compound alone; RPMI1640, 37 °C, 48 h; read-out: MIC
Summary of the method: as §1

C. auris B11245 [3] = assay: microbe, parasite or virus in culture; assay type: cell-based, Candida auris
Summary of the method: as §1

A. fumigatus AF293 [4] = assay: microbe, parasite or virus in culture; assay type: cell-based, Aspergillus fumigatus
Cn MRL862 = assay type: cell-based, Cryptococcus neoformans; conditions: RPMI1640, 37 °C, 48 h
Summary of the method: (§2)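 Broth microdilution followed CLSI M27 (yeasts) or M38 (filamentous fungi) in RPMI1640, with 2-fold serial dilution, inoculum 5000 cfu/mL and 2 days at 37 °C. For synergy, medium carried the peptide at fixed final concentration and FIC index was calculated; the higher MIC of duplicates was reported.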

C. glabrata 2001 [5] = assay type: cell-based, Candida glabrata; conditions: RPMI1640, 37 °C, 48 h
Summary of the method: as §2

C. albicans SC5413 [6] = assay type: cell-based, Candida albicans; conditions: RPMI1640, 37 °C, 48 h; for MIC of antifungal in combination with KKOO: azole MICs unclear (intermediate phenotype); for MIC of antifungal in combination with KKOO-NH2: azole MICs could not be determined (intermediate phenotype)
Summary of the method: as §2

C. auris B11245 [7] = assay type: cell-based, Candida auris; conditions: RPMI1640, 37 °C, 48 h; for MIC of antifungal in combination with KKOO-NH2: MIC = well with <20% growth
Summary of the method: as §2

A. fumigatus AF293 [8] = assay: Drug synergy (MIC in peptide-supplemented media); assay type: cell-based, Aspergillus fumigatus; conditions: RPMI1640, 37 °C, 48 h; for MIC of antifungal in combination with KKOO-NH2: MIC = well with <20% growth
Summary of the method: as §2

[9] = compound alone, RPMI1640, 37 °C, 48 h, * = paradoxical growth observed (CAS)
[10] = +0 μg/mL KKOO (control), CAS: paradoxical growth, MIC = <20% growth
[11] = +0 μg/mL KKOO-NH2 (control), CAS: paradoxical growth
[12] = +1 μg/mL KKOO-NH2, CAS: paradoxical growth
[13] = +1 μg/mL KKOO, CAS: paradoxical growth, MIC = <20% growth
[14] = +2 μg/mL KKOO-NH2, CAS: paradoxical growth
[15] = +2 μg/mL KKOO, CAS: paradoxical growth, MIC = <20% growth
[16] = +4 μg/mL KKOO-NH2, CAS: paradoxical growth
[17] = +4 μg/mL KKOO, CAS: paradoxical growth, MIC = <20% growth

OC(Cn1cncn1)(Cn1cncn1)c1ccc(F)cc1F [FLC, fluconazole]
MIC (C. neoformans Crm1^OE): 0.25 µg/mL (≈ 0.816 µM)
MIC (C. neoformans H99): 2 µg/mL (≈ 6.53 µM)
MIC (C. neoformans MRL862; Cryptococcus neoformans, MRL862, compound alone, read-out: MIC): 32 µg/mL (≈ 104 µM)
MIC relative to wild-type strain H99 (higher) (C. neoformans MRL862): 16 fold
MIC (C. neoformans apt1Δ): 0.5 µg/mL (≈ 1.63 µM)
MIC (C. neoformans apt2Δ): 2 µg/mL (≈ 6.53 µM)
MIC (C. neoformans apt3Δ): 2 µg/mL (≈ 6.53 µM)
MIC (C. neoformans apt4Δ): 2 µg/mL (≈ 6.53 µM)
MIC (C. neoformans cdc50Δ): 0.125 µg/mL (≈ 0.408 µM)
MIC (C. neoformans crm1Δ): 2 µg/mL (≈ 6.53 µM)
MIC (C. glabrata 2001 [1]): 8 µg/mL (≈ 26.1 µM)
MIC (C. glabrata FKS1-S629P): 2 µg/mL (≈ 6.53 µM)
MIC (C. glabrata FKS2-S663P): 2 µg/mL (≈ 6.53 µM)
MIC (C. albicans SC5413 [2]): > 16 µg/mL
MIC (C. auris B11245 [3]; Candidozyma auris, B11245, 48 h): > 128 µg/mL
MIC (C. auris B11245 [3]; [9]): >128 µg/mL
MIC (A. fumigatus AF293 [4]; Aspergillus fumigatus, AF293, 48 h): > 128 µg/mL
MIC (A. fumigatus AF293 [4]; [9]): >128 µg/mL
MIC of antifungal in combination with KKOO (Cn MRL862; +0 μg/mL KKOO (control)): 32 µg/mL
MIC of antifungal in combination with KKOO-NH2 (Cn MRL862; +0 μg/mL KKOO-NH2 (control)): 32 µg/mL
MIC of antifungal in combination with KKOO-NH2 (Cn MRL862; +1 μg/mL KKOO-NH2): 32 µg/mL
MIC of antifungal in combination with KKOO (Cn MRL862; +1 μg/mL KKOO): 64 µg/mL
MIC of antifungal in combination with KKOO-NH2 (Cn MRL862; +2 μg/mL KKOO-NH2): 32 µg/mL
MIC of antifungal in combination with KKOO (Cn MRL862; +2 μg/mL KKOO): 32 µg/mL
MIC of antifungal in combination with KKOO-NH2 (Cn MRL862; +4 μg/mL KKOO-NH2): 32 µg/mL
MIC of antifungal in combination with KKOO (Cn MRL862; +4 μg/mL KKOO): 32 µg/mL
MIC of antifungal in combination with KKOO (C. glabrata 2001 [5]; +0 μg/mL KKOO (control)): 8 µg/mL
MIC of antifungal in combination with KKOO-NH2 (C. glabrata 2001 [5]; +0 μg/mL KKOO-NH2 (control)): 8 µg/mL
MIC of antifungal in combination with KKOO-NH2 (C. glabrata 2001 [5]; +1 μg/mL KKOO-NH2): 8 µg/mL
MIC of antifungal in combination with KKOO (C. glabrata 2001 [5]; +1 μg/mL KKOO): 8 µg/mL
MIC of antifungal in combination with KKOO-NH2 (C. glabrata 2001 [5]; +2 μg/mL KKOO-NH2): 8 µg/mL
MIC of antifungal in combination with KKOO (C. glabrata 2001 [5]; +2 μg/mL KKOO): 8 µg/mL
MIC of antifungal in combination with KKOO-NH2 (C. glabrata 2001 [5]; +4 μg/mL KKOO-NH2): 8 µg/mL
MIC of antifungal in combination with KKOO (C. glabrata 2001 [5]; +4 μg/mL KKOO): 4 µg/mL
MIC of antifungal in combination with KKOO (C. glabrata 2001 [5]; +8 μg/mL KKOO): 4 µg/mL
MIC of antifungal in combination with KKOO (C. albicans SC5413 [6]; +0 μg/mL KKOO (control)): > 16 µg/mL
MIC of antifungal in combination with KKOO-NH2 (C. albicans SC5413 [6]; +0 μg/mL KKOO-NH2 (control)): >16 µg/mL
MIC of antifungal in combination with KKOO-NH2 (C. albicans SC5413 [6]; +1 μg/mL KKOO-NH2): >16 µg/mL
MIC of antifungal in combination with KKOO (C. albicans SC5413 [6]; +1 μg/mL KKOO): > 16 µg/mL
MIC of antifungal in combination with KKOO-NH2 (C. albicans SC5413 [6]; +2 μg/mL KKOO-NH2): >16 µg/mL
MIC of antifungal in combination with KKOO (C. albicans SC5413 [6]; +2 μg/mL KKOO): > 16 µg/mL
MIC of antifungal in combination with KKOO-NH2 (C. albicans SC5413 [6]; +4 μg/mL KKOO-NH2): >16 µg/mL
MIC of antifungal in combination with KKOO (C. albicans SC5413 [6]; +4 μg/mL KKOO): > 16 µg/mL
MIC of antifungal in combination with KKOO (C. albicans SC5413 [6]; +8 μg/mL KKOO): 0.125 µg/mL
MIC of antifungal in combination with KKOO (C. auris B11245 [7]; [10]): > 128 µg/mL
MIC of antifungal in combination with KKOO-NH2 (C. auris B11245 [7]; [11]): >128 µg/mL
MIC of antifungal in combination with KKOO-NH2 (C. auris B11245 [7]; [12]): >128 µg/mL
MIC of antifungal in combination with KKOO (C. auris B11245 [7]; [13]): > 128 µg/mL
MIC of antifungal in combination with KKOO-NH2 (C. auris B11245 [7]; [14]): >128 µg/mL
MIC of antifungal in combination with KKOO (C. auris B11245 [7]; [15]): > 128 µg/mL
MIC of antifungal in combination with KKOO-NH2 (C. auris B11245 [7]; [16]): >128 µg/mL
MIC of antifungal in combination with KKOO (C. auris B11245 [7]; [17]): > 128 µg/mL
MIC of antifungal in combination with KKOO (C. auris B11245 [7]; +8 μg/mL KKOO): > 128 µg/mL
MIC of antifungal in combination with KKOO (A. fumigatus AF293 [8]; [10]): > 128 µg/mL
MIC of antifungal in combination with KKOO-NH2 (A. fumigatus AF293 [8]; [11]): >128 µg/mL
MIC of antifungal in combination with KKOO-NH2 (A. fumigatus AF293 [8]; [12]): >128 µg/mL
MIC of antifungal in combination with KKOO (A. fumigatus AF293 [8]; [13]): > 128 µg/mL
MIC of antifungal in combination with KKOO-NH2 (A. fumigatus AF293 [8]; [14]): >128 µg/mL
MIC of antifungal in combination with KKOO (A. fumigatus AF293 [8]; [15]): > 128 µg/mL
MIC of antifungal in combination with KKOO-NH2 (A. fumigatus AF293 [8]; [16]): >128 µg/mL
MIC of antifungal in combination with KKOO (A. fumigatus AF293 [8]; [17]): > 128 µg/mL
MIC of antifungal in combination with KKOO-NH2 (A. fumigatus AF293 [8]; +8 μg/mL KKOO-NH2, CAS: paradoxical growth): >128 µg/mL
MIC of antifungal in combination with KKOO (A. fumigatus AF293 [8]; +8 μg/mL KKOO): > 128 µg/mL
